Laboratory results as given in ChEMBL document CHEMBL1126347, “Competitive NMDA antagonist that base their activity on a unique conformational effect” (Bioorg Med Chem Lett, 1992).

Molecular target: Glutamate NMDA receptor
Test: The compound was tested for NMDA antagonist activity against [3H]-CGS- 19755 binding in rat cortex preparation

Row | Ki | SMILES
1 | > 1 µM | O=C(CP(=O)(O)O)[C@H]1CCCN[C@H]1C(=O)O (stereo in doubt; 15)
2 | 0.069 µM | O=C(CP(=O)(O)O)[C@H]1CCCN[C@H]1C(=O)O (stereo in doubt; 1)
3 | 0.064 µM | O=C(CP(=O)(O)O)[C@H]1CCCN[C@H]1C(=O)O (stereo in doubt; 14)
4 | 0.106 µM | O=C(O)[C@@H]1NCCC[C@@H]1C(O)CP(=O)(O)O (stereo not given in full)
5 | 0.04 µM | O=C(O)[C@@H]1C[C@H](CP(=O)(O)O)CCN1 (single isomer, unassigned) [SELFOTEL]
